In general, EC50 refers to the concentration giving half of the maximal effect. In general, Ki refers to a measure of affinity in units of concentration, obtained from inhibition or displacement. High values mean a looser hold on the target, low ones a stronger hold on the target.

Data on 56 molecules can be found in PubChem BioAssay AID1869 (NMMLSC, 2009).

Calls of active or inactive are those of the source. No rule for the calls is given here.

One experiment deals with Regulator of G-protein signaling 8 (Homo sapiens) (UniProt P57771). Briefly: compounds altering Galphao binding to RGS8 – biochemical, multiplex bead flow cytometry, dose response (AID 1869). The following applies: bead-based flow cytometry RGS8-Galphao binding.
Regulator of G-protein signaling 8 (Homo sapiens), sequence (P57771 whole entry, looked up): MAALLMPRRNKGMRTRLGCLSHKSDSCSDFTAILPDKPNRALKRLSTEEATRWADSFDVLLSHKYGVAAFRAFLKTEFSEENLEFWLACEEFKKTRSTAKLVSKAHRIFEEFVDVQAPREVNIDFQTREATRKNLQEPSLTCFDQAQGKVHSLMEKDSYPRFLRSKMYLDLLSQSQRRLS
Take `CCOC(=O)N=Nc1c(O)n(C)c2ccccc12`: the EC50 is > 30 µM (inactive). `CC(C)Sc1nc2ccc(N3C(=O)C4CCCCC4C3=O)cc2s1` (stereo not drawn): the EC50 is > 30 µM (inactive).

Regarding `CN(C)[C@@H]1C(=O)C(C(=O)NCN2CCCC2)=C(O)[C@@]2(O)C(=O)C3=C(O)c4c(O)cccc4[C@@](C)(O)C3CC12` (stereo partly drawn), the EC50 is 7.06 µM. On the same count and under the same terms, the value for `CCOC(=O)/C(C(=O)Nc1ccccc1Cl)=C1/NC(C)(C)Cc2ccccc21` was > 30 µM (inactive).

For `O=C1CCCC2=C1C(c1cccs1)n1ncnc1N2` (stereo not drawn), the EC50 was > 30 µM (inactive). On the same count and under the same terms, the value for `NS(=O)(=O)c1ccc(N/N=C/c2ccc(O)c(O)c2O)c([N+](=O)[O-])c1` was 1.69 µM; that for `COc1ccc(Br)cc1/C=N/Nc1cccc(C(=O)O)c1` was > 30 µM (inactive); that for `O=c1[nH]c(=S)n(Cc2ccco2)c(O)c1C=NCc1cccs1` was > 30 µM (inactive). Take `CCOC(=O)C1=C(C)NC(C)=C(C(=O)OCCNC(=O)c2cccnc2)C1c1cccc([N+](=O)[O-])c1` (stereo not drawn): the EC50 was > 30 µM (inactive).

The same experiment, now with this note: bead-based flow cytometry RGS8-Galphao binding; measured here: Ki for RGS8-Galphao binding.
As for `COC(=O)CCC(=O)Nc1sc(C)c(C)c1C(N)=O`, the Ki is 4.93 µM.

As for `COCCCNC(=O)c1ccc2c3c(onc13)-c1ccccc1C2=O`, the inhibition constant (Ki) was 3.52 µM.

Molecule `COc1ccc(C2=CC(=O)C=CC2=O)cc1` returned a Ki of 6.01 µM. Compared with the last molecule, the Ki is about 1.7-fold higher.

Regarding `COc1ccc(OC)c(CCNC(=O)Cn2sc3nc(C)cc(C)c3c2=O)c1`, the Ki came to 3.85 µM. Molecule `O=[N+]([O-])c1ccc(Sc2cccc[n+]2[O-])c2nonc12` gave a Ki of 2.54 µM. `O=c1c2ccccc2sn1-c1ccc(S(=O)(=O)N2CCCC2)cc1` registered an inhibition constant (Ki) of 8.61 µM. On the same count and under the same terms, the value for `Nc1cccnc1Sc1ccc([N+](=O)[O-])cn1` was 13.7 µM; that for `O=c1c2ccccc2sn1-c1cc(S(=O)(=O)N2CCOCC2)ccc1N1CCOCC1` was 4.21 µM; that for `CN=c1scc(C)n1/N=C/c1ccc(O)c(O)c1O` was 7.21 µM. With `CCNc1ccc2noc3c2c1C(=O)c1ccccc1-3`, the Ki amounted to 20.3 µM.

In turn, `CN(C)[C@@H]1C(=O)C(C(=O)NCN2CCCC2)=C(O)[C@@]2(O)C(=O)C3=C(O)c4c(O)cccc4[C@@](C)(O)C3CC12` (stereo partly drawn) registered an inhibition constant Ki of 5.85 µM. Still for that read-out and setting: the value for `Cc1cc(C)c2c(=O)n(CC(=O)Nc3ccc(Cl)cc3)sc2n1` was 5.27 µM; that for `CCN(CC)S(=O)(=O)c1cccc(C(=O)N/N=C/c2ccc(O)c(O)c2O)c1` was 3.77 µM. The same measure, in the same setting: the value for `CN1CCN(C2=C(Cl)C(=O)C(c3cnc(N4CCCCC4)s3)=C(Cl)C2=O)CC1` was 0.11 µM; that for `CCN=c1scc(C)n1/N=C/c1ccc(O)c(O)c1O` was 19.6 µM. Molecule `CC1(C)OC(=O)C(=Cc2ccc(-c3ccc(S(N)(=O)=O)cc3)o2)C(=O)O1` yielded a Ki of 3.98 µM. The same measure, in the same setting: the value for `CCN1/C(=C/C(C)=C/c2sc3ccccc3[n+]2CC)Sc2ccccc21` was 7.38 µM; that for `O=C1OCC2OC(O)C(O)C(O)C2OC(=O)c2cc(O)c(O)c(O)c2-c2c(O)c(O)c3oc(=O)c4c(c(O)c(O)c5oc(=O)c2c3c54)-c2c1cc(O)c(O)c2O` (stereo not drawn) was 0.5 µM. Regarding `CCc1c(C(=O)Nc2ccccc2)c(C)[nH]c(=S)c1C#N`, the Ki is 7.87 µM. Compared with the last molecule, the Ki is about 16-fold higher.

`CN(C)S(=O)(=O)c1cccc(-n2sc3ccccc3c2=O)c1` gave a Ki of 3.31 µM. In turn, `O=C1CCC(=O)N(O)CCCCCNC(=O)CCC(=O)N(O)CCCCCNC(=O)CCC(=O)N(O)CCCCCN1` displayed a Ki of 1.7 µM. As for `Cc1ccc(-n2sc3ccccc3c2=O)cc1S(=O)(=O)N1CCCCC1`, the inhibitory constant (Ki) worked out at 9.95 µM.

Molecule `COc1ccccc1-n1c(-c2cc(-c3ccco3)[nH]n2)n[nH]c1=S` registered a Ki of 6.97 µM.

Regarding `NS(=O)(=O)c1ccc(N/N=C/c2ccc(O)c(O)c2O)c([N+](=O)[O-])c1`, the Ki worked out at 1.4 µM. Compared with the last molecule, the Ki is about 5-fold lower. On the same count and under the same terms, the value for `O=c1c2ccccc2sn1-c1ccccc1` was 5.06 µM. Take `O=C(O)C[C@@H]1C(=O)O[C@@H]2C(COC(=O)c3cc(O)c(O)c(O)c3)O[C@@H](OC(=O)c3cc(O)c(O)c(O)c3)[C@@H](OC(=O)c3cc(O)c(O)c4c3[C@H]1[C@H](O)C(=O)O4)[C@H]2OC(=O)c1cc(O)c(O)c(O)c1` (stereo partly drawn): the inhibition constant (Ki) was determined as 0.68 µM. In turn, `O=C(COc1ccccc1C(=O)N/N=C\c1ccc(O)c(O)c1)N/N=C/c1ccc(O)c(O)c1` had an inhibition constant (Ki) of 2.49 µM. Still for that read-out and setting: the value for `CC(=O)N(O)CCCCCNC(=O)CCC(=O)N(O)CCCCCNC(=O)CCC(=O)N(O)CCCCCN` was 1.89 µM; that for `Nc1c(C(=O)NCC2CCCO2)sc2nc3c(c(-c4ccco4)c12)CC/C3=C\c1ccco1` (stereo not drawn) was 6.07 µM; that for `Cc1[nH]n(-c2ccccc2)c(=S)c1C=Nc1cccc([N+](=O)[O-])c1` was 1.65 µM. Turning to `O=C(Cc1csc(N2CCOCC2)n1)N/N=C/c1ccc(O)c(O)c1O`, the Ki came out at 13.8 µM.

As to `Cc1[nH]n(-c2ccccc2)c(=S)c1C=NCCCN=Cc1c(C)[nH]n(-c2ccccc2)c1=S`, the Ki worked out at 4.25 µM. Consider `O=C(NCCCN1CCOCC1)c1sc2cc([N+](=O)[O-])ccc2c1Cl`, for which the inhibition constant (Ki) was found to be 2.16 µM. Compared with the last molecule, the Ki is about 2-fold lower. `Cc1cc(Cl)ccc1N=c1ssnc1Cl` returned an inhibition constant (Ki) of 11.9 µM.

Turning to `CC(NC(=O)c1sc2cc([N+](=O)[O-])ccc2c1Cl)C(C)(C)C` (stereo not drawn), the Ki came to 1.63 µM. Take `O=C(OCC1O[C@@H](OC(=O)c2cc(O)c(O)c(O)c2)[C@@H](OC(=O)c2cc(O)c(O)c(O)c2)[C@@H](OC(=O)c2cc(O)c(O)c(O)c2)[C@@H]1OC(=O)c1cc(O)c(O)c(O)c1)c1cc(O)c(O)c(O)c1` (stereo partly drawn): the Ki worked out at 1.05 µM. The molecule `CCN1/C(=C/C=C/C=C/c2sc3ccccc3[n+]2CC)Sc2ccccc21` returned an inhibition constant (Ki) of 4.71 µM. In turn, `CCC(=O)NC1=C(Cl)C(=O)C(NC(=O)CC)=C(Cl)C1=O` had a Ki of 2.83 µM.

With `Cc1ccc(NC(=O)Cn2sc3nc(C)cc(C)c3c2=O)c(Cl)c1`, the inhibitory constant (Ki) stood at 11.7 µM. The same measure, in the same setting: the value for `O=C(O[C@@H]1OC2COC(=O)c3cc(O)c(O)c(O)c3-c3c(cc(O)c(O)c3O)C(=O)O[C@@H]([C@H]1O)[C@@H]2O)c1cc(O)c(O)c(O)c1` was 1.45 µM. Molecule `CCOC(=O)C1CCCN(C(=O)Cn2sc3nc(C)cc(C)c3c2=O)C1` (stereo not drawn) returned an inhibition constant Ki of 4.49 µM. Against the preceding molecule, the Ki is about 3.1-fold higher. With `CN(C)c1ncc(C2=C(Cl)C(=O)C(N3CCCC3)=C(Cl)C2=O)s1`, the inhibitory constant (Ki) was 1.11 µM. As to `O=C1C(Cl)=C(N2CCCCC2)C(=O)C(Cl)=C1c1cnc(N2CCCCC2)s1`, the Ki was determined as 0.95 µM. Turning to `Cc1cccc(N2CCN(C(=O)Cn3sc4nc(C)cc(C)c4c3=O)CC2C)c1` (stereo not drawn), the Ki was determined as 12.8 µM. The same measure, in the same setting: the value for `CCOC(=O)c1sc(NC(=O)CSc2nnc(Cc3ccccc3)o2)c(C#N)c1C` was 5.55 µM; that for `Cc1ccccc1-n1sc2cc(F)ccc2c1=O` was 9.64 µM; that for `O=c1c2ccccc2sn1-c1cc(S(=O)(=O)N2CCOCC2)ccc1N1CCCC1` was 3.05 µM. Same read-out and setting: the value for `Cc1cc(C)c2c(=O)n(CC(=O)Nc3cccc(F)c3)sc2n1` was 6.53 µM. The molecule `CCC(=O)NC(c1ccc(C)cc1)c1cc([N+](=O)[O-])c2cccnc2c1O` (stereo not drawn) had a Ki of 13.7 µM.
